Assay results from patent US20080234368A9, “Therapeutic compositions and methods of use” (Trustees of Dartmouth College, priority 1998, published 2008).

How the values were obtained:
[1] = test system: THP-1 monocytic leukemia line; assay: Differentiation of leukemia cells (data not shown); assay type: cell-based, human; settings: by itself or in combination with TGF-β1
[2] = test system: MDA-MB-468 ER negative breast carcinoma cells; assay: Inhibition of cell proliferation (3H-thymidine incorporation); assay type: cell-based, human; settings: MDA-MB-468 (Smad4/DPC4 mutation); 3 or 4 days, 3H-thymidine 2 h
Description: (§1) All cells were obtained from ATCC, except as noted. They were grown under standard conditions in either DMEM, DMEM/F 12, or RPMI 1640 media plus 5-10% FBS. CDDO, over the dose range 10^−6 to 10^−10 M, was added to cultures at the time of seeding. Three or 4 days later, cells were treated with ^3H-thymidine for 2 h (12 h in the case of leukemia cells), and then incorporation was measured. “ER” means estrogen receptor.
(§2) ^aThese cells all have […] mutations (Schutte et al. 1996).

[3] = test system: AsPc-1 pancreatic carcinoma cells; assay: as above; assay type: cell-based, human; settings: AsPc-1 (Smad4/DPC4 mutation); 3 or 4 days, 3H-thymidine 2 h
Description: as §1, §2

[4] = test system: CAPAN-1 pancreatic carcinoma cells; assay: as above; assay type: cell-based, human; settings: CAPAN-1 (Smad4/DPC4 mutation); 3 or 4 days, 3H-thymidine 2 h
Description: as §1, §2

[5] = test system: SW626 ovarian carcinoma cells; assay: as above; assay type: cell-based, human; settings: SW626 (Smad4/DPC4 mutation); 3 or 4 days, 3H-thymidine 2 h
Description: as §1, §2

COX-2 enzymatic activity = target: T1, COX-2 enzymatic activity (Mus musculus, UniProt Q05769); assay: Prostaglandin production in RAW cells with enzyme synthesis already induced; assay type: cell-based; settings: added after enzyme synthesis induced; data not shown
T1 construct: added to RAW cells in which synthesis of these two enzymes has already been induced; endogenous in cells; host or cells: RAW 264.7 mouse macrophage-like cells, enzyme synthesis pre-induced
T1 sequence (Q05769 18-604): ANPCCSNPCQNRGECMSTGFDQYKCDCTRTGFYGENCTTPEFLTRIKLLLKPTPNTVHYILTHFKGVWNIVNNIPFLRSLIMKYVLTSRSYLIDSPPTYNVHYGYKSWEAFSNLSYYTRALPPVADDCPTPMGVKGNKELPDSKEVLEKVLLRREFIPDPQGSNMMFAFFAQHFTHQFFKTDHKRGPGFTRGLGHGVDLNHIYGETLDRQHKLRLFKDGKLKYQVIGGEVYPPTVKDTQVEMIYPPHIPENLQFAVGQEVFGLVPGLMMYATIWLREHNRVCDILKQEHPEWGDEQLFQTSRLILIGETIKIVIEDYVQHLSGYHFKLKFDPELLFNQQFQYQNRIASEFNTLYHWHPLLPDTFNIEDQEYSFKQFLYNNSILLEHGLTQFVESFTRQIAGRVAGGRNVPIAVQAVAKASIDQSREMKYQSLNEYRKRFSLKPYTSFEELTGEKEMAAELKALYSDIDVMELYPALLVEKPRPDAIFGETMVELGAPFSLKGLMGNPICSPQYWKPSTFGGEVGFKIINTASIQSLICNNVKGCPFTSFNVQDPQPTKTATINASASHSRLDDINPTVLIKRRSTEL
Text: These effects of CDDO have been seen in primary mouse macrophages, a mouse macrophage-like tumor cell line (RAW 264.7), and in non-neoplastic human colon fibroblasts. […] Neither iNOS nor COX-2 expression can be detected in these cells until they are stimulated by an inflammatory mediator such as IFN-γ, or LPS. […] The above effects on INOS and COX-2 are also reflected in the cumulative production of their respective enzyme products, NO and PGE2, as measured in primary macrophages (FIG. 14C). […] Likewise, the actions of CDDO are not blocked by the glucocorticoid antagonist, RU-486, which is known to bind to the glucocorticoid receptor (data not shown). In these regards, CDDO is identical to the other oleanolic acid derivatives previously studied (Suh et al., 1998).

[6] = test system: NB4 promyelocytic leukemia line; assay: Differentiation of leukemia cells (data not shown); assay type: cell-based, human; settings: by itself or in combination with TGF-β1
[7] = test system: LPS-induced NO production in rat microglia; assay: LPS-induced NO production in primary microglial cultures; assay type: cell-based; settings: for inhibition of LPS induction of NO production: LPS 5 ng/ml, 18 h
Description: For the following examples, stock solutions of CDDO (0.01 M) were made in DMSO and aliquots frozen at −20° C. Serial dilutions were made in DMSO before addition to cell culture media. Primary rat microglia and hippocampal neurons were isolated and cultured as described by Flaris et al., 1993 and Ren and Flanders, 1996.
The roles of inflammatory mediators, as well as aberrant programs for cell survival and apoptosis, in the genesis of cancer and Alzheimer's Disease are now undergoing serious investigation (McGeer and McGeer, 1995; Merrill and Benveniste, 1996; Akama et al., 1998). CDDO was tested in this example as a suppressor of de novo formation of iNOS in cultured microglia (the resident macrophages of the brain), as well as its ability to protect cultured hippocampal neurons from cell death induced by β-amyloid. […] Thus, LPS (5 ng/ml) induced iNOS in primary microglial cultures and caused a 27-fold increase in production of NO within 18 h. Concomitant treatment of these cultures with CDDO at either 10^−6 or 10 ^−7 M inhibited this induction by 73% and 52%, respectively. We have also explored the possibility that CDDO can protect cultured hippocampal neurons from cell death induced by the peptide β-amyloid, since NO has been implicated (Akama et al., 1998) in the neurotoxic actions of this peptide which is central to the pathogenesis of Alzheimer's disease (Selkoe, 1997). Hippocampal neurons were isolated and cultured from 16 day rat embryos and then treated with CDDO for 24 h before adding the β-amyloid peptide fragment, amino acids 25-35, at a final concentration of 10 μM. This dosing with β-amyloid alone caused death of more than half of the neurons in the culture within 24 h, as measured by MTT assay.

[8] = test system: LCDB acute myelogenous leukemia cell line; assay: Monocytic differentiation, α-naphthyl acetate esterase staining; assay type: cell-based, human
Description: CDDO induces monocytic differentiation in the poorly differentiated LCDB acute myelogenous leukemia cell line, derived from a chemotherapy-resistant patient at the NCI Pediatric Oncology Branch. FIG. 11 illustrates LCDB cells seeded in RPMI 1640/2% FBS, either alone (11A), with 2.5 ng/ml TGF-β1 (11B), with 10^−8 M CDDO (11C), or with both TGF-β1 and CDDO (11D). After 48 h, cytospin slide preparations were made and stained for α-naphthyl acetate esterase activity (kit from Sigma). PC12 cells were cultured for 5 days in gridded dishes in DMEM/10% FBS and 5% horse serum (Smith et al., 1997), either alone (11E), with 100 ng/ml 7S NGF (11F), with 10^−6 M CDDO (11G), or with both NGF and CDDO (11H). […] Methods for quantitative image analysis of size of cells and neurites have been described (De 1a Torre et al., 1997). Control cells in FIG. 11E are approximately 10 μm in diameter. 3T3-L1 cells were grown to confluency in DMEM/5% calf serum, and then treated once with CDDO in DMEM/10% FBS (FIG. 12A) or with CDDO and/or LG100268 in DMEM/10% FBS (FIG. 12B). Every two days thereafter, medium was changed to DMEM/10% FBS, without added CDD0 or LG100268. Cells were harvested on day 8 (FIG. 12A) or day 6 (FIG. 12B), and GPDH was measured in lysates, using a standard assay for consumption of NADH at 340 nm (Wise and Green, 1979).

SMILES: CC1(C)CC[C@]2(C(=O)O)CC[C@]3(C)[C@H](C(=O)C=C4[C@@]5(C)C=C(C#N)C(=O)C(C)(C)[C@@H]5CC[C@]43C)[C@@H]2C1 [Compound 6, 2-cyano-3,12-dioxoolean-1,9-dien-28-oic acid]
- differentiative effects [1]: differentiative effects
- IC50 [2]: 200 nM
- IC50 [3]: 100 nM
- IC50 [4]: 300 nM
- IC50 [5]: 300 nM
- immediate effect on prostaglandin production (direct inhibition of COX-2) (COX-2 enzymatic activity): no immediate effect
- differentiative effects [6]: differentiative effects
- inhibition of LPS induction of NO production ([7]; CDDO 10^−6 M): 73%
- inhibition of LPS induction of NO production ([7]; CDDO 10^−7 M): 52%
- activity on LPS-induced NO production compared with dexamethasone (FIG. 2) ([7]; rat microglia cells): favorable to that of dexamethasone
- α-naphthyl esterase activity, combination effect ([8]; 10^−8 M CDDO with 2.5 ng/ml TGF-β1): additive effect
- induction of α-naphthyl esterase activity (monocytic differentiation) ([8]; 10^−8 M CDDO, within 48 h): induced the activity of this enzyme
